5 compounds from patent US6335332B1, “Barbituric acid derivatives with antimetastatic and antitumor activity” (Roche Diagnostics GmbH, priority 1997, dated 2002) can be followed below.

pIC50: −log10 of the molar value. Like-named read-outs stand apart in the source and are kept apart here.

For experiment [1], the system named is human fibrosarcoma HT1080 cells. The experiment is described as follows: Test of chemoinvasion through Type IV collagen coated Transwell chambers. In kind it is cell-based. The following applies: HT-1080, concentration 10^-7 M. The method, then:
The compounds of the present invention have also shown activity in a test of chemoinvasion. In the test of chemoinvasion the Costar Transwell chambers for cell culture (diameter: 6.5 mm: pore size: 8 μm) are coated with 100 μl of Type IV collagen (diluted solution 50 μg/ml, then evaporation overnight). With the same procedure the chambers are coated with a second layer of Type IV collagen (100 μl of solution at concentration 50 μg/ml). Before use, the chambers are rinsed twice with sterile water and incubated for about 1 hour at 37° C. in a serum-free medium (DMEM).
The human fibrosarcoma HT1080 cells are harvested by trypsin-EDTA treatment, washed with DMEM-10% FCS and incubated for at least 30 minutes at 37° C. in the same medium. The cells are then washed with serum-free DMEM and resuspended in serum-free DMEM added with 0.1% BSA (fraction V), counted and diluted to obtain a final density of 3×10^5 cell/ml.
Preincubated inserts are aspirated to remove the serum-free medium. […]
Incubated filters are then washed with PBS, the cells are fixed 15 min. in 4% paraformaldehyde, permeabilized in methanol (10 minutes, −20° C.) and stained with May-Grunwald-Giemsa. Cells which adhere to the top of the filters are removed with a cotton swab, filters are detached from the bottom of the chambers and analyzed with microscope to determine the number of cells on the lower side of the filters. […]

The target in experiment [2] is T1, MMP8 (human neutrophil collagenase) catalytic domain (Homo sapiens, UniProt P22894).
T1 construct: by means of the catalytic domain of MMP8
T1 sequence (P22894 100-262 limits assumed): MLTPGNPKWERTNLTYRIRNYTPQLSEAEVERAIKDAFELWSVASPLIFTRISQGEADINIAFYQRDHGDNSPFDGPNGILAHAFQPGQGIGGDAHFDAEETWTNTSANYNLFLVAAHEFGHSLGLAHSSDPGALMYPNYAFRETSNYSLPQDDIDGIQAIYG
The experiment is described as follows: Inhibition of MMP8 catalytic domain, fluorescent DNP-substrate degradation. In kind it is biochemical. The procedure: Said test provides for the determination via fluorescence of the inhibition of the degradation of a fluorescent substrate (DNP-Pro-Leu-Gly-Leu-Trp-Ala-D-Arg-[…], M1855 Bachem) by means of the catalytic domain of MMP8.
(§1) Reagents: 1) DNP-substrate=DNP-Pro-Leu-Gly-Leu-Trp-Ala-D-Arg-NH2 (M1855 Bachem), M. W. 977,l g/mol, concentration 25 μM in DMSO, 2) measurement buffer=50 mM TRIS/100 mM NaCl/10 mM CaCl2.2H2O, adjusted at pH 7 6 with hydrochloric acid. 3) Enzyme=catalytic domain of MMP8 ([…]), concentration 0.055 mg/ml in TRIS buffer. Substrate and enzyme are maintained at 0° C. with ice bath.
(§2) Total volume=1 ml of solution kept under stirring in a cuvette
(§3) It is measured the fluoresence at 346 nm both of the control solution (without inhibitor) and of the solution containing the inhibitor. The inhibition of the catalytic activity of MMP8 results in the decrease of the DNP-substrate bond's lysis, with related decrease of the fluorescence of the solution.
(§4) The percentage of inhibition is expressed by the following formula:
(§5) % Inhibition=100−(rel. unit/timewith inhibitor/rel. unit/timecontrol×100)
(§6) By repeating the experiment at different concentrations of inhibitor it is possible to determine the IC50 value.

Experiment [3] has as its target T2, MMP-9 (gelentinase 92 kD) (Homo sapiens, UniProt P14780).
T2 construct: MMP-9 IC50; other: catalytic domain
T2 sequence (P14780 with tags, fused parts or gaps DEL217-390 limits assumed): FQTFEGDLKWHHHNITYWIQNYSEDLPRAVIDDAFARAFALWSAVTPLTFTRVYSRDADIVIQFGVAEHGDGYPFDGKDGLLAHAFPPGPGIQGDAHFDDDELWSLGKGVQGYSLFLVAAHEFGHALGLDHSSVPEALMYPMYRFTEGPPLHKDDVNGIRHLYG
The experiment can be described thus: Inhibition of MMP-9 catalytic domain (same test as MMP8). In kind it is biochemical. The procedure:
The compounds of the present invention have been tested in a pharmacological “in vitro” test of inhibition of MMP8 (human neutrophil collagenase). Said test provides for the determination via fluorescence of the inhibition of the degradation of a fluorescent substrate (DNP-Pro-Leu-Gly-Leu-Trp-Ala-D-Arg-[…], M1855 Bachem) by means of the catalytic domain of MMP8.
as §1, §2, §3, §4, §5, §6
The same test has been performed also on the MMP-9 (gelentinase 92 kD) and the selectivity between the two enzymes has been evaluated. Values of MMP-9/MMP-8 rate well below 1 are expected to give rise to less side toxic effects, since MMP-8 seems more involved in the regulation of vital functions that MMP-9 does.

In turn, `CCCCCCCCC1(CC(=O)N(CCNC(C)=O)Cc2ccccc2)C(=O)NC(=O)NC1=O` [Example 6, 5-octyl-5-(carboxymethyl)barbituric acid N′-acetyl-N-benzyl-N-ethylenediamide] came in with an inhibition at 0.1 µM in experiment [1] of 73%. Further, the pIC50 in experiment [2] was 7.17; in experiment [3], 7.85. As to `CCCCCCCCC1(CC(=O)OCC)C(=O)NC(=O)NC1=O` [Example 1, 5-octyl-5-(ethoxycarbonylmethyl)barbituric acid], the pIC50 in experiment [2] is 6.97; in experiment [3], 7.71. The matching figures for `CCCCCCCCC1(CC(=O)NCCNC(C)=O)C(=O)NC(=O)NC1=O` [Example 5, 5-octyl-5-(carboxymethyl)barbituric acid N′-acetyl N-ethylenediamide]: 7.00 and 7.70. In the case of `CNC(=O)[C@H](Cc1ccccc1)NC(=O)[C@H](CC(C)C)[C@H](CSc1cccs1)C(=O)NO` [batimastat, reference compound], in experiment [3] (catalytic domain, read-out: MMP-9 IC50), the pIC50 was 7.60.

Regarding `CNC(=O)[C@H](Cc1ccccc1)NC(=O)[C@H](CC(C)C)[C@H](CSc1ccccc1)C(=O)NO` [GI 129471, reference compound], at 0.1 µM the inhibition in experiment [1] was 77%.

One may read the inhibition as the drop in the measured response relative to a control, in per cent. In general, pIC50 refers to −log10 of the IC50, conventionally taken in molar units.
